The source of these data is patent publication US20250136722A1, “CYTOTOXICITY TARGETING CHIMERAS” (GLAXOSMITHKLINE INTELLECTUAL PROPERTY DEVELOPMENT LIMITED, priority 2021, published 2025).

The structures appear in SMILES notation. Counter-ions that a name gives are not always drawn.

The test concerns the target T1, CHOK1 cells engineered to overexpress human CCR2 (Homo sapiens, UniProt P41597).
T1 construct: expressed in transfected cells; host or cells: CHOK1 cells
As to the kind of experiment: Antibody dependent cellular cytotoxicity (ADCC) reporter assay (Example 199). The test is classed as cell-based. The note with it: with anti-cotinine antibody SEQ ID NO: 11/12; CHOK1-human CCR2 target cells, Jurkat FcγRIIIa NFAT-luciferase reporter cells; 12-18 hours; read-out: ADCC Reporter Assay pEC50 (converted). The method, then: An antibody dependent cellular cytoxicity reporter assay was conducted using the following four assay components: (i) ARM compound of Formula (I) targeting CCR2 (concentrations ranging from 1 pM to 10 μM) (ii) anti-cotinine antibody having a heavy chain sequence of SEQ ID NO: 11 and a light chain sequence of SEQ ID NO: 12 (rabbit variable region with human IgG1 Fc domain containing a DE mutation (S239D/1332E)) (concentrations ranging from 0.01 μg/mL to 200 μg/mL); (iii) target cells: CHOK1 cells engineered to overexpress either human CCR2 (typically 1000-20,000 cells per well) and (iv) reporter cells: Jurkat cells engineered to express FcγRIIIa with the reporter gene luciferase under the control of the NFAT promoter (typically 3000-75,000 cells per well). Reagents were combined in a final volume of 20 μL in a 384-well tissue culture treated plate. All four assay components were incubated together for about 12-18 hours. Thereafter, BioGlo Detection reagent (Promega) was added to the wells to lyse the cells and provide a substrate for the luciferase reporter protein. Luminescence signal was measured on a microplate reader and signal:background was calculated by dividing the signal of a test well by the signal obtained when no heterobivalent compound of Formula (I) was added. EC50 calculations were done using Graphpad Prism Software, specifically a nonlinear regression curve fit (Y=Bottom+(Top−Bottom)/(1+10^((Log EC50−X)*HillSlope))).
ARMs compounds of Formula (I) of the invention were tested for ADCC activity in the above assay in or more experimental runs and the results are shown in Table 3 below. Potency of the compounds of Formula (I) of the invention is reported as a pEC50 value. The pEC50 value is the negative log of the EC50 value, wherein the EC50 value is the half maximal effective concentration measured in molar (M). For compounds tested in more than one experimental run, the pEC50 value is reported as an average.
For orientation: In a reporter assay the amount or activity of a reporter protein is the signal.

On to `CC(C)N(C)[C@@H]1CC[C@H](N2CC[C@H](Nc3ncnc4ccc(C(F)(F)F)cc34)C2=O)[C@H](NC(=O)[C@H]2CC[C@@H](N3CCC(C(=O)NCCOCCOCCNC(=O)[C@H]4CC(=O)N(C)[C@@H]4c4cccnc4)CC3)CC2)C1` [Example 134], for which the EC50 is 0.0631 nM.

Regarding `CC(C)N(C)[C@@H]1CC[C@H](N2CC[C@H](Nc3ncnc4ccc(C(F)(F)F)cc34)C2=O)[C@H](NC(=O)[C@H]2CC[C@H](N3CCC(C(=O)NCCOCCOCCNC(=O)[C@H]4CC(=O)N(C)[C@@H]4c4cccnc4)CC3)CC2)C1` [Example 135], the EC50 is 2.51 nM.

Regarding `CC(C)N(C)[C@@H]1CC[C@H](N2CC[C@H](Nc3ncnc4ccc(C(F)(F)F)cc34)C2=O)[C@H](NC(=O)CNC(=O)[C@H]2CC[C@@H](NC(=O)COCCOCCNC(=O)[C@H]3CC(=O)N(C)[C@@H]3c3cccnc3)CC2)C1` [Example 136, (2S,3S)-N-(2-(2-(2-(((1S,4R)-4-((2-(((1R,2S,5R)-5-(Isopropyl(methyl)amino)-2-((S)-2-oxo-3-((6-(trifluoromethyl)quinazolin-4-yl)amino)pyrrolidin-1-yl)cyclohexyl)amino)-2-oxoethyl)carbamoyl)cyclohexyl)amino)-2-oxoethoxy)ethoxy)ethyl)-1-methyl-5-oxo-2-(pyridin-3-yl)pyrrolidine-3-carboxamide], the EC50 is 4.91 nM.

For `CC(C)N(C)[C@@H]1CC[C@H](N2CC[C@H](Nc3ncnc4ccc(C(F)(F)F)cc34)C2=O)[C@H](NC(=O)[C@H]2CC[C@H](c3ccc(C(=O)NCCOCCOCCNC(=O)[C@H]4CC(=O)N(C)[C@@H]4c4cccnc4)cn3)CC2)C1` [Example 139, 6-((1R,4r)-4-(((1R,2S,5R)-5-(Isopropyl(methyl)amino)-2-((S)-2-oxo-3-((6-(trifluoromethyl)quinazolin-4-yl)amino)pyrrolidin-1-yl)cyclohexyl)carbamoyl)cyclohexyl)-N-(2-(2-(2-((2S,3S)-1-methyl-5-oxo-2-(pyridin-3-yl)pyrrolidine-3-carboxamido)ethoxy)ethoxy)ethyl)nicotinamide], the EC50 was 3.98 nM.

`CC(C)N(C)[C@@H]1CC[C@H](N2CC[C@H](Nc3ncnc4ccc(C(F)(F)F)cc34)C2=O)[C@H](NC(=O)[C@H]2CC[C@H](c3ccc(C(=O)NCCOCCOCCNC(=O)[C@H]4CC(=O)N(C)[C@@H]4c4cccnc4)nc3)CC2)C1` [Example 141]: the EC50 was 2 nM.

In the case of `CC(C)N(C)[C@@H]1CC[C@H](N2CC[C@H](Nc3ncnc4ccc(C(F)(F)F)cc34)C2=O)[C@H](NC(=O)C2CCN(CCCCCCCCNC(=O)[C@H]3CC(=O)N(C)[C@@H]3c3cccnc3)CC2)C1` [Example 144, N-((1R,2S,5R)-5-(Isopropyl(methyl)amino)-2-((S)-2-oxo-3-((6-(trifluoromethyl)quinazolin-4-yl)amino)pyrrolidin-1-yl)cyclohexyl)-1-(8-((2S,3S)-1-methyl-5-oxo-2-(pyridin-3-yl)pyrrolidine-3-carboxamido)octyl)piperidine-4-carboxamide, 3Formic acid salt], the EC50 was 3.16 nM.

`CC(C)N(C)[C@@H]1CC[C@H](N2CC[C@H](Nc3ncnc4ccc(C(F)(F)F)cc34)C2=O)[C@H](NC(=O)[C@H]2CC[C@@H](N3CCN(CCCCCCCCNC(=O)[C@H]4CC(=O)N(C)[C@@H]4c4cccnc4)CC3)CC2)C1` [Example 145]: the EC50 is 1.58 nM.

As to `CC(C)N(C)[C@@H]1CC[C@H](N2CC[C@H](Nc3ncnc4ccc(C(F)(F)F)cc34)C2=O)[C@H](NC(=O)[C@H]2CC[C@H](N3CCN(CCCCCCCCNC(=O)[C@H]4CC(=O)N(C)[C@@H]4c4cccnc4)CC3)CC2)C1` [Example 146], the EC50 was 0.251 nM.

For the molecule `CC(C)N(C)[C@@H]1CC[C@H](N2CC[C@H](Nc3ncnc4ccc(C(F)(F)F)cc34)C2=O)[C@H](NC(=O)C2CCN(CCOCCOCCOCCOCCNC(=O)[C@H]3CC(=O)N(C)[C@@H]3c3cccnc3)CC2)C1` [Example 147], the EC50 is 1.26 nM.

Regarding `CC(C)N(C)[C@@H]1CC[C@H](N2CC[C@H](Nc3ncnc4ccc(C(F)(F)F)cc34)C2=O)[C@H](NC(=O)[C@H]2CC[C@@H](C(=O)NCCCN3CCN(CCCNC(=O)[C@H]4CC(=O)N(C)[C@@H]4c4cccnc4)CC3)CC2)C1` [Example 150, (1 s,4S)-N^1-((1R,2S,5R)-5-(Isopropyl(methyl)amino)-2-((S)-2-oxo-3-((6-(trifluoromethyl)quinazolin-4-yl)amino)pyrrolidin-1-yl)cyclohexyl)-N^4-(3-(4-(3-((2S,3S)-1-methyl-5-oxo-2-(pyridin-3-yl)pyrrolidine-3-carboxamido)propyl)piperazin-1-yl)propyl)cyclohexane-1,4-dicarboxamide], the EC50 is 3.16 nM.

In the case of `CC(C)N(C)[C@@H]1CC[C@H](N2CC[C@H](Nc3ncnc4ccc(C(F)(F)F)cc34)C2=O)[C@H](NC(=O)COCCCCCCCCCOCCCCCCCNC(=O)[C@H]2CC(=O)N(C)[C@@H]2c2cccnc2)C1` [Example 153, (2S,3S)-N-(7-((9-(2-(((1R,2S,5R)-5-(Isopropyl(methyl)amino)-2-((S)-2-oxo-3-((6-(trifluoromethyl)quinazolin-4-yl)amino)pyrrolidin-1-yl)cyclohexyl)amino)-2-oxoethoxy)nonyl)oxy)heptyl)-1-methyl-5-oxo-2-(pyridin-3-yl)pyrrolidine-3-carboxamide], the EC50 was 2.51 nM.

For `CC(C)N(C)[C@@H]1CC[C@H](N2CC[C@H](Nc3ncnc4ccc(C(F)(F)F)cc34)C2=O)[C@H](NC(=O)[C@H]2CC[C@H](N3CCN(C(=O)CCCCCCCCNC(=O)[C@H]4CC(=O)N(C)[C@@H]4c4cccnc4)CC3)CC2)C1` [Example 155], the EC50 was 1.58 nM.

Consider `CC(C)N(C)[C@@H]1CC[C@H](N2CC[C@H](Nc3ncnc4ccc(C(F)(F)F)cc34)C2=O)[C@H](NC(=O)c2cnn(C3CCN(C(=O)CCCCCCCCCCNC(=O)[C@H]4CC(=O)N(C)[C@@H]4c4cccnc4)CC3)c2)C1` [Example 156], for which the EC50 is 0.794 nM.

As to `CC(C)N(C)[C@@H]1CC[C@H](N2CC[C@H](Nc3ncnc4ccc(C(F)(F)F)cc34)C2=O)[C@H](NC(=O)C2CC=C(c3ccc(OCCCCCCNC(=O)[C@H]4CC(=O)N(C)[C@@H]4c4cccnc4)cc3)CC2)C1` (stereo partly drawn) [Example 158, (2S,3S)-N-(6-((4′-(((1R,2S,5R)-5-(Isopropyl(methyl)amino)-2-((S)-2-oxo-3-((6-(trifluoromethyl)quinazolin-4-yl)amino)pyrrolidin-1-yl)cyclohexyl)carbamoyl)-2′,3′,4′,5′-tetrahydro-[1,1′-biphenyl]-4-yl)oxy)hexyl)-1-methyl-5-oxo-2-(pyridin-3-yl)pyrrolidine-3-carboxamide], the EC50 was 2.51 nM.

As for `CC(C)N(C)[C@@H]1CC[C@H](N2CC[C@H](Nc3ncnc4ccc(C(F)(F)F)cc34)C2=O)[C@H](NC(=O)CCCCCCCCC(=O)NCCOCCOCCNC(=O)[C@H]2CC(=O)N(C)[C@@H]2c2cccnc2)C1` [Example 159, N^1-((1R,2S,5R)-5-(isopropyl(methyl)amino)-2-((S)-2-oxo-3-((6-(trifluoromethyl)quinazolin-4-yl)amino)pyrrolidin-1-yl)cyclohexyl)-N^10-(2-(2-(2-((2S,3S)-1-methyl-5-oxo-2-(pyridin-3-yl)pyrrolidine-3-carboxamido)ethoxy)ethoxy)ethyl)decanediamide], the EC50 was 2 nM.

Regarding `CC(C)N(C)[C@@H]1CC[C@H](N2CC[C@H](Nc3ncnc4ccc(C(F)(F)F)cc34)C2=O)[C@H](NC(=O)c2ccnc(CCCOCCOCCOCCOCCNC(=O)[C@H]3CC(=O)N(C)[C@@H]3c3cccnc3)c2)C1` [Example 160, N-((1R,2S,5R)-5-(Isopropyl(methyl)amino)-2-((S)-2-oxo-3-((6-(trifluoromethyl)quinazolin-4-yl)amino)pyrrolidin-1-yl)cyclohexyl)-2-(1-((2S,3S)-1-methyl-5-oxo-2-(pyridin-3-yl)pyrrolidin-3-yl)-1-oxo-5,8,11,14-tetraoxa-2-azaheptadecan-17-yl)isonicotinamide, 3Formic acid salt], the EC50 was 2 nM.

For the molecule `CC(C)N(C)[C@@H]1CC[C@H](N2CC[C@H](Nc3ncnc4ccc(C(F)(F)F)cc34)C2=O)[C@H](NC(=O)CCCCOCCCCCCCCOCCCCNC(=O)[C@H]2CC(=O)N(C)[C@@H]2c2cccnc2)C1` [Example 161, (2S,3S)-N-(4-((8-((5-(((1R,2S,5R)-5-(Isopropyl(methyl)amino)-2-((S)-2-oxo-3-((6-(trifluoromethyl)quinazolin-4-yl)amino)pyrrolidin-1-yl)cyclohexyl)amino)-5-oxopentyl)oxy)octyl)oxy)butyl)-1-methyl-5-oxo-2-(pyridin-3-yl)pyrrolidine-3-carboxamide], the EC50 is 1.58 nM.
